Measured values taken from the NIST ThermoML archive (doi:10.1021/je050416y).
Numbers after ± are expanded uncertainties.

Assay: xn = mol fraction of the nth substance listed
Settings: 101 kPa, Liquid; for mass density: Vibrating tube method

CCC(C)CO (stereo unspecified) [2-methyl-1-butanol] + CCO
Settings | kinematic viscosity, 308.15 K [m2/s] | kinematic viscosity, 313.15 K [m2/s] | kinematic viscosity, 318.15 K [m2/s] | kinematic viscosity, 323.15 K [m2/s] | mass density, 313.15 K [kg/m3] | mass density, 318.15 K [kg/m3] | mass density, 323.15 K [kg/m3]
x1 = 0.0268 | – | – | – | – | 773.7 ± 1 | 769.4 ± 1 | 765.1 ± 1
x1 = 0.0549 | – | – | – | – | 775.2 ± 1 | 771 ± 1 | 766.7 ± 1
x1 = 0.0845 | – | – | – | – | 776.7 ± 1 | 772.5 ± 1 | 768.3 ± 1
x1 = 0.0915 | 1.2e-06 ± 5.8e-08 | 1.08e-06 ± 5.3e-08 | 9.8e-07 ± 4.8e-08 | 8.59e-07 ± 4.3e-08 | – | – | –
x1 = 0.1156 | – | – | – | – | 778.2 ± 1 | 774.1 ± 1 | 769.9 ± 1
x1 = 0.1484 | – | – | – | – | 779.7 ± 1 | 775.6 ± 1 | 771.5 ± 1
x1 = 0.1753 | 1.27e-06 ± 6.1e-08 | 1.14e-06 ± 5.5e-08 | 1.03e-06 ± 5.1e-08 | 8.96e-07 ± 4.5e-08 | – | – | –
x1 = 0.183 | – | – | – | – | 781.2 ± 1 | 777.2 ± 1 | 773.1 ± 1
x1 = 0.2524 | 1.34e-06 ± 6.4e-08 | 1.2e-06 ± 5.8e-08 | 1.07e-06 ± 5.3e-08 | 9.37e-07 ± 4.7e-08 | – | – | –
x1 = 0.2584 | – | – | – | – | 784.2 ± 1 | 780.3 ± 1 | 776.3 ± 1
x1 = 0.3235 | 1.42e-06 ± 6.7e-08 | 1.26e-06 ± 6.1e-08 | 1.13e-06 ± 5.5e-08 | 9.83e-07 ± 4.9e-08 | – | – | –
x1 = 0.3433 | – | – | – | – | 787.3 ± 1 | 783.5 ± 1 | 779.6 ± 1
x1 = 0.3894 | 1.5e-06 ± 7.1e-08 | 1.33e-06 ± 6.4e-08 | 1.19e-06 ± 5.7e-08 | 1.04e-06 ± 5.1e-08 | – | – | –
x1 = 0.4395 | – | – | – | – | 790.5 ± 1 | 786.8 ± 1 | 782.9 ± 1
x1 = 0.4505 | 1.6e-06 ± 7.5e-08 | 1.41e-06 ± 6.7e-08 | 1.25e-06 ± 6e-08 | 1.1e-06 ± 5.4e-08 | – | – | –
x1 = 0.5495 | – | – | – | – | 793.8 ± 1 | 790.1 ± 1 | 786.3 ± 1
x1 = 0.5605 | 1.82e-06 ± 8.4e-08 | 1.6e-06 ± 7.5e-08 | 1.41e-06 ± 6.7e-08 | 1.23e-06 ± 5.9e-08 | – | – | –
x1 = 0.6567 | 2.07e-06 ± 9.5e-08 | 1.8e-06 ± 8.4e-08 | 1.59e-06 ± 7.5e-08 | 1.39e-06 ± 6.6e-08 | – | – | –
x1 = 0.6765 | – | – | – | – | 797 ± 1 | 793.4 ± 1 | 789.7 ± 1
x1 = 0.7416 | 2.33e-06 ± 1.1e-07 | 2.03e-06 ± 9.3e-08 | 1.78e-06 ± 8.3e-08 | 1.56e-06 ± 7.3e-08 | – | – | –
x1 = 0.817 | 2.62e-06 ± 1.2e-07 | 2.28e-06 ± 1e-07 | 2e-06 ± 9.2e-08 | 1.75e-06 ± 8.1e-08 | – | – | –
x1 = 0.8247 | – | – | – | – | 800.3 ± 1 | 796.7 ± 1 | 793.2 ± 1
x1 = 0.8844 | 2.97e-06 ± 1.3e-07 | 2.58e-06 ± 1.2e-07 | 2.26e-06 ± 1e-07 | 1.98e-06 ± 9.1e-08 | – | – | –
x1 = 0.9451 | 3.43e-06 ± 1.5e-07 | 2.97e-06 ± 1.3e-07 | 2.6e-06 ± 1.2e-07 | 2.28e-06 ± 1e-07 | – | – | –
x1 = 1 | 4.08e-06 ± 1.8e-07 | 3.54e-06 ± 1.6e-07 | 3.09e-06 ± 1.4e-07 | 2.72e-06 ± 1.2e-07 | 803.6 ± 1 | 800.1 ± 1 | 796.6 ± 1
